{"source": "paper PMC9231138", "about": "“Dihydrotanshinone I Enhances Cell Adhesion and Inhibits Cell Migration in Osteosarcoma U−2 OS Cells through CD44 and Chemokine Signaling” (Molecules, 2022)", "format_in_all_cases": "cell-based, human", "key": {"HeLa cells": {"test_system": "HeLa cells", "assay": "Cell adhesion against trypsin digestion, HeLa cells", "settings": "DS-1 10.0, 15.0, 20.0 μM for 24 h", "source_text": "Dihydrotanshinone I enhances cell adhesion and inhibits cell migration in osteosarcoma U-2 OS cell through CD44\nLanyan Fan1, 2, Chen Peng2, Xiaoping Zhu1, 2, Yawen Liang2, Ti anyi Xu2, Peng Xu1 and Shihua Wu1, 2* 1 Joint Research Centre for Engineering Biology, Zhejiang University-University of Edinburgh Institute, Zhejiang University, Haining 314400, China\n2 Research Center of Siyuan Natural Pharmacy and Biotoxicology, College of Life Sciences, Zhejiang University, Hangzhou, Zhejiang Province 310058, China\n* Correspondence: Drwushihua@zju.edu.cn, Shihuawu@intl.zju.edu.cn; Tel.: +86-13968131541 Legends for Supplementary figures\nFigure S1. The chemical structures of major tanshinones isolated from Salvia miltiorrhiza rhizome.\nFigure S2. The effects of DS-1 on HeLa cell adhesion on cell culture plates against trypsin digestion. (A) Hela cells were seeded at 80000 per well in 6-well plates for 12 h, then treated with 0, 10.0, 15.0, 20.0 μM DS-1 for 24 h.\nAfter that, cells were washed by PBS solution and digested by 400 μL 0.25% trypsin. During the digestion, cellular morphology was recorded by inverted microscope with camera every 30 seconds. The digestion time […]\nFigure S3. […]\ncellular morphology was recorded by inverted microscope every 30 seconds. […]\nFigure S4. […] The relative expression of CD44 was detected by Western Blot and […]"}, "CD44": {"test_system": "CD44", "assay": "CD44 expression by immunofluorescence", "settings": "DS−1 2.5, 5.0, and 7.5 µM for 24 h", "experimental": "Figure 7 DS−1 enhanced U−2 OS cells’ adhesion. (A) The morphological changes of U−2 OS cells treated with/without DS−1. Cells were treated with 0 and 7.5 μM DS−1 for 24 h, washed with PBS, and digested with trypsin at 25 °C under a microscope, and photos were taken every 30 s. The percentages of digested cells are recorded in (B). (C) Heatmap of genes related to the adherens’ junction in the control group and DS−1 group. (D) U−2 OS cells were treated with 0 and 7.5 μM DS−1 for 24 h, and the expression of CD44 was observed by immunofluorescence. (E,F) CD44 and GAPDH were analyzed by Western blot and calculated by Image J. (G) The relative expression of 4 kinds of MT-MMPs was analyzed by the transcriptome, as shown in the heatmap. (H) After being treated with DS−1, the relative expression of MT-MMP-1 was verified by RT-PCR. Values are the average of three independent experiments, * p < 0.05, ** p < 0.01, *** p < 0.005.\nCoverslip preparation: we cultured U−2 OS cells on sterile glass coverslips in 24-well plates and then treated them with DS−1 at different concentrations.\nFixation and staining: We washed the cells with PBS 3 times and fixed the cells with 200 μL 4% paraformaldehyde/PBS solution at 4 °C for 15 min. We then rinsed 3 times with PBS and permeabilized with 200 μL 0.2% TritonX-100 at room temperature for 30 min. […]"}, "vimentin": {"test_system": "vimentin", "assay": "RT-PCR vimentin mRNA in U−2 OS cells", "settings": "24 h", "experimental": "Total RNA within cells was extracted by the RNAeasy™ Animal Long RNA Isolation Kit with Spin Column (Shanghai, Beyotime); the concentrations and OD260/OD280 and OD230/OD260 values were measured by NanoDrop. Five micrograms of RNA was used for reverse transcription; each sample was diluted to 16 μL, and 4 μL of synthesized premix solution (5×) was added, then the mixtures were placed in a 42 °C water bath for 10 min, then an 80 °C water bath for 10 min to deactivate reverse transcriptase. After reverse transcription, each sample was diluted to 140 μL. PCR amplification was carried out by the ABI700 real-time PCR system, and the amplification reaction was detected with a SYBR probe. After PCR, actin and GAPDH were used as internal references, and the relative standard curve method (2^−ΔΔcT) determined the relative expression of mRNA."}}}
{"smiles": "Cc1cccc2c3c(ccc12)C1=C(C(=O)C3=O)[C@@H](C)CO1", "note": "[DS−1, 15,16-Dihydrotanshinone I]", "values": [{"measurement": "cell adhesion against trypsin digestion on cell culture plates", "setting": "HeLa cells", "value": "not significant"}, {"measurement": "CD44 expression", "setting": "CD44", "value": "significantly increased"}, {"measurement": "vimentin mRNA, fold of the control group", "setting": "vimentin; DS−1 2.5 µM", "value": "0.67 ± 0.11", "unit": "fold"}, {"measurement": "vimentin mRNA, fold of the control group", "setting": "vimentin; DS−1 5.0 µM", "value": "0.51 ± 0.11", "unit": "fold"}, {"measurement": "vimentin mRNA, fold of the control group", "setting": "vimentin; DS−1 7.5 µM", "value": "0.12 ± 0.16", "unit": "fold"}]}
